Test system: ELAC_205
Conditions: laccase; sodium acetate buffer; optimum pH 1.0, 50 °C (kinetic assay conditions not stated separately)

For CCn1c(=NN=c2sc3cc(S(=O)(=O)O)ccc3n2CC)sc2cc(S(=O)(=O)O)ccc21 [ABTS, 2, 2’-azino-bis (3-ethylbenzothiazoline-6-sulfonic acid)], which Km is on record?
The Km was 360 ± 70 µM.

Reference: article PMC10870720, “Lignin bioconversion based on genome mining for ligninolytic genes in Erwinia billingiae QL-Z3” (Biotechnology for Biofuels and Bioproducts, 2024)
